Assay results reported in US20140314780A1, “Compositions Using Antibodies Directed to GPNMB and Uses Thereof” (Celldex Therapeutics, Inc., priority 2008, published 2014).
Entries after “also recorded” stand apart in the source; their conditions may differ.

Columns and labels:
Assay type in all cases: cell-based, human
GPNMB = test: Immunoblotting for GPNMB on whole-cell lysates of cancer cell lines after drug exposure; settings: for increase of GPNMB expression in the screen: determined by immunoblotting and/or flow cytometry analysis; for GPNMB expressed after protein synthesis inhibition: 1 hour, absence of ammonium chloride (FIG. 6D)
Description: Cancer cell lines were of human origin and were obtained from the American Type Culture Collection (Manassas, Va.) and from the National Cancer Institute (Bethesda, Md.) and cultured in RPMI-1640 supplemented with 10% FBS (growth media). Sources of reagents were as follows: RAFKi (553013), MEKi (U0126), MEKi (PD98059), MEKi (444939), ERKi (FR180204), p38 MAPKi (SB202190), p38 MAPKi (SB203580), aurora kinase inhibitor (189404), JNK inhibitor (420119), MMPi (GM6001) were from EMD Chemicals (San Diego, Calif.). ERKi (A6355), RAFKi: (GW5074), ammonium chloride (NH4Cl), chloroquine, monensin, cyclohexamide and emetine were from Sigma (Saint Louis, Mo.). HSP90i (geldanamycin) was from AG Scientific (San Diego, Calif.) and imatinib (Gleevec) was purchased from a pharmacy.
Cells were seeded in 6-well tissue culture dishes at a subconfluent density and allowed to attach overnight. For harvesting cell lysates, media was removed, cells were briefly washed with serum-free media and then 1× Tris-glycine SDS sample buffer (Invitrogen, Carlsbad, Calif.) supplemented with 10 mM dithiothreitol (Sigma) was added directly to the wells. Cell lysates were then collected and boiled for 10 minutes. For preparing conditioned media, drug treatments were performed in a minimum volume of growth media (1.5 mL/well). Following 48 hours of incubation, conditioned media was collected, briefly microfuged, mixed with an equal volume of 2× Tris-glycine SDS sample buffer (Invitrogen, Carlsbad, Calif.) supplemented with 20 mM dithiothreitol (Sigma) and boiled for 10 minutes. For cell lysates, samples were quantified and an equal quantity of protein/lane was resolved on 4-20% gradient polyacrylamide gels (Invitrogen) and then transferred to nitrocellulose filters (Invitrogen). The volume of conditioned media loaded/lane was adjusted based on the protein concentration determined in the respective cell lysates. Immunoblotting was performed using standard procedures and the following primary antibodies: MARTI (sc-20032), TYRP2 (sc-25544), TYRP1 (sc-25543), PMEL17 (sc-15010), MAGEA1 (sc-20033), MCSP (sc-20162), MTf (sc-26651), MCAM (sc-18942), pp-ERK (sc-7976) and ERK (sc-94) (preceding antibodies were purchased from Santa Cruz Biotechnologies, Santa Cruz, Calif.), GPNMB (AF2550; R & D Systems, Minneapolis Minn.), actin (A5060; Sigma). Following incubation with the appropriate horseradish peroxidase-conjugated secondary antibodies, enhanced chemiluminescence (GE Healthcare, Chalfont St. Giles, United Kingdom) was used for detection.

phospho-ERK (pp-ERK) = test: Immunoblotting for phospho-ERK (level of ERK activation)
Description: In the experiment presented in FIG. 2A, potential inhibition of the ERK pathway was investigated by immunoblotting for phospho-ERK (pp-ERK), which represents the active form of this signaling molecule.

[1] = test system: GPNMB surface expression on SF539 glioblastoma cells; test: Flow cytometry of GPNMB surface expression, SF539 cells; settings: SF549, CR011 (anti-GPNMB) primary antibody
Experimental: (§1) Cells were seeded in 6-well tissue culture dishes at a subconfluent density and allowed to attach overnight. The following day, cells were treated as indicated in the figures/legends, harvested with versene (Invitrogen), washed with PBS and incubated with primary antibody (10 μg/mL) diluted in staining buffer (PBS pH 7.4, 4% FBS, 0.1% sodium azide) for 30 minutes on ice. […] After incubation with primary antibody, samples were washed with staining buffer and then incubated with secondary antibody (PE-conjugated anti-human antibody; 1:100) for 30 minutes on ice. After incubation, samples were washed with staining buffer and examined on a Becton Dickinson FACSCalibur flow cytometer (BD Immunocytometry Systems, San Jose, Calif.). Data analysis was performed with Becton Dickinson Cell Quest software and the geometric mean fluorescence intensity (GeoMean) was determined for each sample.
(§2) For the data shown in Table 37, flow cytometry was performed on intact, non-permeabilized cells using the indicated primary monoclonal antibodies. […] The results are reported as GeoMeans. […] For the data shown in the bottom left panel of Table 37, SKMEL2 (melanoma) cells were treated with MEKi (U0126; 10 uM), imatinib (20 uM), p38i (p38 MAPKi SB202190; 50 uM), NH4Cl (ammonium chloride; 20 mM) or CLQ (chloroquine; 20 uM) for 48 hours prior to analysis. For the data shown in the bottom right panel of Table 37, WM2664 (melanoma) cells were treated with MON (monensin) or MMPi (GM6001) for 48 hours prior to analysis.

[2] = test system: GPNMB surface expression on A375 melanoma cells; test: Flow cytometry of GPNMB surface expression, A375 cells; settings: for GPNMB surface expression, flow cytometry GeoMean: A375, CR011 (anti-GPNMB) primary antibody
Experimental: as §1, §2

[3] = test system: GPNMB surface expression on SKMEL2 melanoma cells; test: Flow cytometry of GPNMB surface expression, SKMEL2 cells; settings: for GPNMB surface expression, flow cytometry GeoMean: SKMEL2, CR011 (anti-GPNMB) primary antibody, MEKi (U0126) 10 uM, imatinib 20 uM, p38i (SB202190) 50 uM; for GPNMB surface-expression: SKMEL2 cells, 48 hours (Table 37, bottom left)
Experimental: as §1
For the data shown in Table 37, flow cytometry was performed on intact, non-permeabilized cells using the indicated primary monoclonal antibodies. […] The results are reported as GeoMeans. For the data shown in the top panel of Table 37, A375 (melanoma) or SF539 (glioblastoma) cells were treated with the indicated concentrations of MEKi (U0126), RAFKi (553013) or ERKi (FR180204) for 12, 24 or 48 hours prior to analysis. For the data shown in the bottom left panel of Table 37, SKMEL2 (melanoma) cells were treated with MEKi (U0126; 10 uM), imatinib (20 uM), p38i (p38 MAPKi SB202190; 50 uM), NH4Cl (ammonium chloride; 20 mM) or CLQ (chloroquine; 20 uM) for 48 hours prior to analysis. For the data shown in the bottom right panel of Table 37, WM2664 (melanoma) cells were treated with MON (monensin) or MMPi (GM6001) for 48 hours prior to analysis.

UACC62 melanoma cells = test: In vitro growth-inhibition/cytotoxicity assay, UACC62 cells; settings: 0.16 μg/mL, 72 hours, trypan blue
[4] = melanoma lines SKMEL2, A375, WM2664, MEWO, 48 hours (FIG. 6A)

## Cc1ccc2nc(NCCN)c3ncc(C)n3c2c1 [BMS345541]
GPNMB
  increase of GPNMB expression in the screen: ineffective

## Nc1n[nH]c2nnc(-c3c(-c4ccccc4)nn4ccccc34)cc12 [FR180204, 5-(2-phenylpyrazolo[1,5-a]pyridin-3-yl)-1H-pyrazolo[3,4-c]pyridazin-3-amine]
phospho-ERK (pp-ERK); FIG. 3B bottom, A375, SKMEL2, SF539
  inhibition of the ERK pathway (phospho-ERK levels): relatively weak inhibition
[1]; ERKi (FR180204) 3.1 uM, 12 h
  GPNMB surface expression, flow cytometry GeoMean: 32.6
[1]; ERKi (FR180204) 3.1 uM, 24 h
  GPNMB surface expression, flow cytometry GeoMean: 33.7
[1]; ERKi (FR180204) 3.1 uM, 48 h
  GPNMB surface expression, flow cytometry GeoMean: 32.6
[1]; ERKi (FR180204) 50 um, 12 h
  GPNMB surface expression, flow cytometry GeoMean: 31.3
[1]; ERKi (FR180204) 50 um, 24 h
  GPNMB surface expression, flow cytometry GeoMean: 30.7
[1]; ERKi (FR180204) 50 um, 48 h
  GPNMB surface expression, flow cytometry GeoMean: 30.6
GPNMB; A375 cells, only following an exposure time of 48 hours (FIG. 3B, bottom)
  GPNMB induction (immunoblotting): strong induction
GPNMB; SKMEL2 or SF539 cells (FIG. 3B, bottom)
  GPNMB induction (immunoblotting): Little or no GPNMB induction
[2]; ERKi (FR180204) 3.1 uM, 12 h
  GPNMB surface expression, flow cytometry GeoMean: 13.0
[2]; ERKi (FR180204) 3.1 uM, 24 h
  GPNMB surface expression, flow cytometry GeoMean: 13.5
[2]; ERKi (FR180204) 3.1 uM, 48 h
  GPNMB surface expression, flow cytometry GeoMean: 13.1
[2]; ERKi (FR180204) 50 um, 12 h
  GPNMB surface expression, flow cytometry GeoMean: 13.0
[2]; ERKi (FR180204) 50 um, 24 h
  GPNMB surface expression, flow cytometry GeoMean: 14.9
[2]; ERKi (FR180204) 50 um, 48 h
  GPNMB surface expression, flow cytometry GeoMean: 50.3
[2]; A375 melanoma, 12, 24 or 48 hours (Table 37, top)
  GPNMB surface expression: induced GPNMB surface expression

## O=c1cc(N2CCOCC2)oc2c(-c3ccccc3)cccc12 [LY94002]
GPNMB
  increase of GPNMB expression in the screen: ineffective

## Nc1ncn([C@@H]2O[C@H](CO)[C@@H](O)[C@H]2O)c(=O)n1 [Mab 5-AZA]
GPNMB
  increase of GPNMB expression in the screen: ineffective

## Oc1ccc(-c2nc(-c3ccc(F)cc3)c(-c3ccncc3)[nH]2)cc1 [SB202190, 4-[4-(4-Fluorophenyl)-5-(4-pyridinyl)-1H-imidazol-2-yl]phenol]
[3]
  GPNMB surface expression, flow cytometry GeoMean: 85.1

## Cl.N [ammonium chloride]
GPNMB; NH4Cl 20 mM, 48 hours (FIG. 6E)
  GPNMB induction compared with MTf and MCAM: more highly induced
GPNMB; ammonium chloride (50 mM) along with protein synthesis inhibitor, 1 hour (FIG. 6D)
  GPNMB detection with protein synthesis inhibitor: readily detectable
GPNMB; [4]
  GPNMB expression (immunoblotting): induced
[3]
  GPNMB surface expression, flow cytometry GeoMean: 93.8
  GPNMB surface-expression: increase GPNMB surface-expression

## O=C(/C=C/c1cccc(S(=O)(=O)Nc2ccccc2)c1)NO [belinostat]
GPNMB
  increase of GPNMB expression in the screen: ineffective

## CC(C)C[C@H](NC(=O)[C@H](Cc1ccccc1)NC(=O)c1cnccn1)B(O)O [bortezomib]
GPNMB
  increase of GPNMB expression in the screen: ineffective

## O=NN(CCCl)C(=O)NCCCl [carmustine]
GPNMB
  increase of GPNMB expression in the screen: ineffective

## CCN(CC)CCCC(C)Nc1ccnc2cc(Cl)ccc12 (centres unmarked) [chloroquine]
GPNMB; [4]
  GPNMB expression (immunoblotting): induced
[3]
  GPNMB surface expression, flow cytometry GeoMean: 91.2
  GPNMB surface-expression: increase GPNMB surface-expression

## N.N.[Cl][Pt][Cl] [cisplatin]
GPNMB
  increase of GPNMB expression in the screen: ineffective

## C[C@@H]1C[C@@H]([C@H](O)CC2CC(=O)NC(=O)C2)C(=O)[C@@H](C)C1 [cyclohexamide]
GPNMB
  GPNMB expressed after protein synthesis inhibition: little or no GPNMB

## CC[C@H]1CN2CCc3cc(OC)c(OC)cc3[C@@H]2C[C@@H]1C[C@H]1NCCc2cc(OC)c(OC)cc21 [emetine]
GPNMB
  GPNMB expressed after protein synthesis inhibition: little or no GPNMB

## Cc1ccc(NC(=O)c2ccc(CN3CCN(C)CC3)cc2)cc1Nc1nccc(-c2cccnc2)n1 [imatinib]
phospho-ERK (pp-ERK); melanoma and glioblastoma cell lines, imatinib 20 μM, 48 hours (FIG. 6B)
  phospho-ERK: without inhibiting phospho-ERK
GPNMB; [4]
  GPNMB expression (immunoblotting): induced
GPNMB; variety of melanoma and glioblastoma cell lines, 48 hours (FIG. 6B, 6C)
  GPNMB expression (immunoblotting): strongly induced; also recorded: robust GPNMB expression
[3]
  GPNMB surface expression, flow cytometry GeoMean: 103.7
  GPNMB surface-expression: increase GPNMB surface-expression

## CC(=O)O[C@H]1C(=O)[C@@]2(C)[C@H]([C@H](OC(=O)c3ccccc3)[C@]3(O)C[C@H](OC(=O)[C@H](O)[C@@H](NC(=O)c4ccccc4)c4ccccc4)C(C)=C1C3(C)C)[C@]1(OC(C)=O)CO[C@@H]1C[C@@H]2O [paclitaxel]
GPNMB
  increase of GPNMB expression in the screen: ineffective

## CR011-vcMMAE: antibody-drug conjugate of anti-GPNMB antibody CR011 with Auristatin E (vcMMAE) through a protease-cleavable linker
UACC62 melanoma cells; UACC62 cells not pretreated with the MEK inhibitor
  growth-inhibition: little growth-inhibition
UACC62 melanoma cells; UACC62 cells pretreated with the MEK inhibitor (U0126 1 μM, 48 hours)
  growth-inhibition: strong growth-inhibition

## IFNα
GPNMB
  increase of GPNMB expression in the screen: ineffective

## IFNγ: IFNγ, compound examined in the screen
GPNMB
  increase of GPNMB expression in the screen: ineffective
